Laboratory results: patent publication US5677148A (priority 1995, dated 1997)
Read-outs that look alike come from different tables or passages of the source.

Tested on: A431 cells
Assay: Sensitivity of DAB-EGF chimeric toxin cytotoxicity to chloroquine ([3H]leucine incorporation)
Conditions: for activity at 10 µM: Homo sapiens; for Percent of Control Incorporation: 20-hour incubation
Method: To determine if the cytotoxicity of DAB486 EGF and DAB389 EGF is also dependent upon the same pathway, A431 cells were plated in sextuplicate wells of 96 well plates containing DAB486 EGF, DAB389 EGF or DMEM+10% FCS in the absence or presence of chloroquine (10^-5 M) (Sigma). […] Following a 20-hour incubation at 37° C., the cells were labeled with [^3 H] leucine, trypsinized, harvested onto glass fiber filter mats and counted.

CCN(CC)CCCC(C)Nc1ccnc2cc(Cl)ccc12 (stereo not shown) [Chloroquine]
activity at 10 µM (A-431, read-out: Percent of Control Incorporation, chloroquine 10^-5 M, DAB389 EGF concentration 0, 20-hour incubation at 37° C., [3H]leucine, mean of three experiments): 73% | activity at 10 µM (A-431, read-out: Percent of Control Incorporation, chloroquine 10^-5 M, DAB486 EGF concentration 0, 20-hour incubation at 37° C., [3H]leucine, mean of three experiments): 86% | Percent of Control Incorporation (chloroquine 10^-5 M with DAB389 EGF 10^-11 M, [3H]leucine (no addition: 4)): 61% | Percent of Control Incorporation (chloroquine 10^-5 M with DAB389 EGF 10^-12 M, [3H]leucine (no addition: 57)): 100% | Percent of Control Incorporation (chloroquine 10^-5 M with DAB486 EGF 10^-8 M, [3H]leucine (no addition: 5)): 60% | Percent of Control Incorporation (chloroquine 10^-5 M with DAB486 EGF 10^-9 M, [3H]leucine (no addition: 25)): 96% | Effect on the cytotoxicity of DT-EGF chimeric toxins (chloroquine 10^-5 M, A431 cells, DAB486 EGF or DAB389 EGF): blocks the cytotoxicity
